Reference: patent US8034810B2, “Arylsulfonamido-substituted hydroxamic acid derivatives” (Novartis AG, priority 1999, dated 2011)
Where a name gives a salt, the structure may show the parent alone.

These compounds were tested against T1, MMP2 (gelatinase A) (Homo sapiens, UniProt P08253) (assay: In vitro inhibition of MMP2 (gelatinase A), fluorogenic peptide substrate). Conditions: APMA-activated recombinant human proMMP2; substrate 10 μM; 37° C.
T1 construct: made in house; host or cells: Tn insect cells, baculovirus (pFAST BAC 1)
T1 sequence (P08253 110-660): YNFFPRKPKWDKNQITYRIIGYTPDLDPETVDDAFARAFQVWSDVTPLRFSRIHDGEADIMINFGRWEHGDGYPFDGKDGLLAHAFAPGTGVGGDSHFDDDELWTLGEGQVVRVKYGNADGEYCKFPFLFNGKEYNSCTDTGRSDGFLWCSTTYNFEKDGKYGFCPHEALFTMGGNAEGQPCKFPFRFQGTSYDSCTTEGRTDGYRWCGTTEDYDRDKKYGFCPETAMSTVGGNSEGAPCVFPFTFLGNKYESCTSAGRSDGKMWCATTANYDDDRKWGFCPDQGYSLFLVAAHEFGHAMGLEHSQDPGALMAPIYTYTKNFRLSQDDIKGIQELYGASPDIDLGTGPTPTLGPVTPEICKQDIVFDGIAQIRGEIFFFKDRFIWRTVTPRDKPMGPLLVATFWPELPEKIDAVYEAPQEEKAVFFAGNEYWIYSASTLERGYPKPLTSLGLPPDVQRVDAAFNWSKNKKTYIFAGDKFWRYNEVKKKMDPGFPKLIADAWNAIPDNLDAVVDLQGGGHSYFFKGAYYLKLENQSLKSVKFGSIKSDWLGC
Assay type: biochemical
Experimental: The inhibitory activities of compounds of formula I on MT1-MMP, MMP1 (collagenase 1) and MMP2 (gelatinase A) can be determined as follows:
Stock solutions of substrate (MCA-Pro-Leu-Gly-Leu-Dpa-Ala-Arg-NH2, Knight, C. G., Willenbrock, F., Murphy, G., A novel coumarin-labelled peptide for sensitive continuous assays of the matrix metalloproteinases, FEBS lett., 296, 263-266, (1992)), are prepared in 100% DMSO at a concentration 1.0 mM. Stock solutions of inhibitors are prepared in 100% DMSO. The inhibitor is diluted into the assays from a solution in 100% DMSO, and controls substitute an equal volume of DMSO so that the final DMSO concentration from inhibitor and substrate dilutions in all assays is 6.0%. Assays are performed in assay buffer (150 mM NaCl, 10 mM CaCl2, 50 mM Tris-Cl pH7.5, 0.05% Brij-35) containing 6.0% DMSO once the substrate and inhibitor are diluted into it. The substrate concentration used in the assays is 10 μM. The test is carried out at 37° C. The fluorescence changes are monitored using an excitation wavelength of 320 nm and an emission wavelength of […]. The reaction mixture is added in duplicate to appropriate wells of a 96 well microfluor plate. The reaction mixture is preincubated with the inhibitor for 30 min, the reaction is started by the addition of MMP enzyme and the fluorescence intensity is measured for 10 min. A time point that is on a linear part of the curve is chosen to determine the activity. The inhibition results are expressed as the inhibitor concentrations that produced 50% inhibition (IC50) of the activity in the control (non-inhibited) reaction. In this test, the compounds of the formula I and their pharmacologically acceptable salts have an inhibiting concentration IC50 [μmol/litre] of 0.0001 and 0.030, usually of 0.0002 to 0.010, for MMP2 and an inhibiting concentration IC50 [μmol/litre] of 0.0005 and 0.125, usually of 0.001 to 0.05, for MT1-MMP.
Plasmid: The cDNA for human proMMP2 is supplied by Prof. Motoharu Seiki, Institute of Medical Science, The University of Tokyo. The cDNA encoding a full length on human pro-MMP2 is generated by PCR of cDNA derived from RNA isolated from human HT1080 cells (ATCC# CCL121). The primers to generate this cDNA are GAATTCGATGGAGGCG CTAATGGCCCGG and […] corresponding to full length human pro-MMP2 of the reported cDNA sequence, GenBank accession number J03210. The resulting 2.0 Kb PCR fragment is cloned into EcoR1/Xho 1 site of pFAST BAC 1 vector (pBAC-MMP2) (Collier, I. E., Wilhelm, S. M., Eisen, A. Z., Manner, B. L., Grant, G. A., Seltzer, J. L., Kronberger, A., He, C., Bauer, E. A. and Goldberg, G. I. J. Biol. Chem., 263:6579-6587, 1988).
Expression and Purification: For baculovirus expression of r-proMMP2, pBAC-MMP2 is transformed into DH10BAC competent cells to produce a r-proMMP2 bacmid DNA. The recombinant bacmid DNA is transfected into cultured insect cells (Tn cells) with Cellfectin reagent (Gibco BRL). Recombinant baculovirus are plaque purified to homogeneity and are used to generate high titer stocks of the recombinant baculovirus. Expression of r-proMMP2 is confirmed by gelatin zymography.
Culture fluids of Tn cells infected with baculovirus are centrifuged and filtrated through a […] pore size filter to remove cell debris. The recombinant proMMP2 as absorbed to gelatin Sepharose 4B (Pharmacia Biotech) in equilibration buffer of in 25 mM Tris-HCl (pH 7.5), 1 M NaCl, 10 mM CaCl2, 0.05% Briji 35 at 4° C. After washing the beads with equilibration buffer, r-proMMP2 as eluted with equilibration buffer containing 10% DMSO. The enzyme are stored at 4° C. until activation. For assay, the purified proMMP2 is activated with 1 mM APMA for 1 hr at 37° C.

Compound | IC50 [nM]
2-[(Cyclopropylmethoxy-benzenesulfonyl)-(4-[1,2,4]triazol-1-yl-benzyl)-amino]-N-hydroxyacetamide-hydrochloride salt [Example 82b] | 10.4
C=CCCOc1ccc(S(=O)(=O)N(CC(=O)NO)Cc2ccc(-n3ccnc3)cc2)cc1 [Example 80, 2-[(4-But-3-enyloxy-benzenesulfonyl)-(4-imidazol-1-yl-benzyl)-amino]-N-hydroxy-acetamide-hydrochloride] | 8
C=CCCOc1ccc(S(=O)(=O)N(CC(=O)NO)Cc2ccc(N3CCOCC3)cc2)cc1 [Example 81, 2-[(4-But-3-enyloxy-benzenesulfonyl)-(4-morpholin-4-yl-benzyl)-amino]-N-hydroxy-acetamide-hydrochloride] | 10.4
O=C(CN(Cc1ccc(-n2cncn2)cc1)S(=O)(=O)c1ccc(OCCC2CC2)cc1)NO [Example 82a] | 40.2
O=C(CN(Cc1ccc(-n2cncn2)cc1)S(=O)(=O)c1ccc(OCc2ccoc2)cc1)NO [Example 82c] | 5.3
C=CCCOc1ccc(S(=O)(=O)N(CC(=O)NO)Cc2cccc(F)n2)cc1 [Example 83a, 2-([4-But-3-enyloxy-benzenesulfonyl]-(6-fluoro-pyridine-2-yl)methyl-amino)-N-hydroxyacetamide] | 2.1

Continued by falling IC50, values first:

IC50 [nM] | Compound
14.7 | C=CCCOc1ccc(S(=O)(=O)N(CC(=O)NO)Cc2ccc(N3CCCC3)cc2)cc1 [Example 84a, 2-[(4-But-3-enyloxy-benzenesulfonyl)-(4-(pyrrolidin-1-yl)-benzyl)-amino]-N-hydroxyacetamide-hydrochloride]
1 | C#CCOc1ccc(S(=O)(=O)N(CC(=O)NO)Cc2ccc(OC)cc2)cc1 [Example 75, [(4-methoxy-benzyl)-[4-prop-2-ynyloxy-benzenesulfonyl]-amino]-N-hydroxy-acetamide]
0.7 | COc1ccc(CN(CC(=O)NO)S(=O)(=O)c2ccc(OCCCCl)cc2)cc1 [Example 68, 2-{[4-(3-chloro-propoxy)-benzenesulfonyl]-(4-methoxy-benzyl)amino}-N-hydroxy-acetamide]
0.2 | C=CCCOc1ccc(S(=O)(=O)N(CC(=O)NO)Cc2ccc(-n3cncn3)cc2)cc1 [Example 79, 2-[(4-but-3-enyloxy-benzenesulfonyl)-(4-[1,2,4]triazol-1-yl-benzyl)-amino]-N-hydroxy-acetamide-hydrochloride salt]
